According to article PMC3903614, “Factors That Control the Chemistry of the LOV Domain Photocycle” (PLoS ONE, 2014):

Columns and labels:
Assay in all cases: UV-Vis absorbance of bound flavin, dark recovery after photosaturation
Type in all cases: binding
[1] = target: T1, AsLOV2 (A. sativa phot1 LOV2) (Avena sativa, UniProt O49003, N414A); settings: 22 °C; bound chromophore; covalent photoadduct with C450 in the light; adduct decay time, not an affinity
T1 construct: gene NPH1-1; LOV2 domain with flanking helices, residues 404-560; His6-Gβ1 tag removed by TEV; GEF left on the amino terminus and G on the carboxy terminus; expressed in E. coli BL21(DE3)
Text: (§1) UV-Vis absorbance of bound flavin, dark recovery after photosaturation on AsLOV2 (A. sativa phot1 LOV2)

[2] = target: T2, AsLOV2 (A. sativa phot1 LOV2) (Avena sativa, UniProt O49003, N414D); settings: 22 °C; bound chromophore; covalent photoadduct with C450 in the light; adduct decay time, not an affinity
T2 construct: gene NPH1-1; LOV2 domain with flanking helices, residues 404-560; His6-Gβ1 tag removed by TEV; GEF left on the amino terminus and G on the carboxy terminus; expressed in E. coli BL21(DE3)
Text: as §1

[3] = target: T3, AsLOV2 (A. sativa phot1 LOV2) (Avena sativa, UniProt O49003, C450V/F494C); settings: 22 °C; relocated active-site cysteine (C494); covalent photoadduct in the light, <10% bleaching; adduct decay time, not an affinity
T3 construct: gene NPH1-1; LOV2 domain with flanking helices, residues 404-560; His6-Gβ1 tag removed by TEV; GEF left on the amino terminus and G on the carboxy terminus; expressed in E. coli BL21(DE3)
Text: as §1

[4] = target: T4, AsLOV2 (A. sativa phot1 LOV2) (Avena sativa, UniProt O49003, Q513L); settings: 22 °C; bound chromophore; covalent photoadduct with C450 in the light; adduct decay time, not an affinity
T4 construct: gene NPH1-1; LOV2 domain with flanking helices, residues 404-560; His6-Gβ1 tag removed by TEV; GEF left on the amino terminus and G on the carboxy terminus; expressed in E. coli BL21(DE3)
Text: as §1

[5] = target: T5, AsLOV2 (A. sativa phot1 LOV2) (Avena sativa, UniProt O49003, N414Q); settings: 22 °C; bound chromophore; covalent photoadduct with C450 in the light; adduct decay time, not an affinity
T5 construct: gene NPH1-1; LOV2 domain with flanking helices, residues 404-560; His6-Gβ1 tag removed by TEV; GEF left on the amino terminus and G on the carboxy terminus; expressed in E. coli BL21(DE3)
Text: as §1

[6] = target: T6, AsLOV2 (A. sativa phot1 LOV2) (Avena sativa, UniProt O49003, N414G); settings: 22 °C; bound chromophore; covalent photoadduct with C450 in the light; adduct decay time, not an affinity
T6 construct: gene NPH1-1; LOV2 domain with flanking helices, residues 404-560; His6-Gβ1 tag removed by TEV; GEF left on the amino terminus and G on the carboxy terminus; expressed in E. coli BL21(DE3)
Text: as §1

[7] = target: T7, AsLOV2 (A. sativa phot1 LOV2) (Avena sativa, UniProt O49003, Q513D); settings: 22 °C; bound chromophore; covalent photoadduct with C450 in the light; adduct decay time, not an affinity
T7 construct: gene NPH1-1; LOV2 domain with flanking helices, residues 404-560; His6-Gβ1 tag removed by TEV; GEF left on the amino terminus and G on the carboxy terminus; expressed in E. coli BL21(DE3)
Text: as §1

[8] = target: T8, AsLOV2 (A. sativa phot1 LOV2) (Avena sativa, UniProt O49003, N414L); settings: 22 °C; bound chromophore; covalent photoadduct with C450 in the light; adduct decay time, not an affinity
T8 construct: gene NPH1-1; LOV2 domain with flanking helices, residues 404-560; His6-Gβ1 tag removed by TEV; GEF left on the amino terminus and G on the carboxy terminus; expressed in E. coli BL21(DE3)
Text: as §1

[9] = target: T9, AsLOV2 (A. sativa phot1 LOV2) (Avena sativa, UniProt O49003, F494C); settings: 22 °C; bound chromophore; covalent photoadduct with C450 in the light; adduct decay time, not an affinity
T9 construct: gene NPH1-1; LOV2 domain with flanking helices, residues 404-560; His6-Gβ1 tag removed by TEV; GEF left on the amino terminus and G on the carboxy terminus; expressed in E. coli BL21(DE3)
Text: as §1

[10] = target: T10, AsLOV2 (A. sativa phot1 LOV2) (Avena sativa, UniProt O49003); settings: 22 °C; bound chromophore; covalent cysteinyl-C4a photoadduct with C450 in the light, noncovalent in the dark; adduct decay time, not an affinity; Table 1 gives 80 s from earlier work
T10 construct: gene NPH1-1; LOV2 domain with flanking helices, residues 404-560; His6-Gβ1 tag removed by TEV; GEF left on the amino terminus and G on the carboxy terminus; expressed in E. coli BL21(DE3)
T10 sequence (O49003 entry or part of it): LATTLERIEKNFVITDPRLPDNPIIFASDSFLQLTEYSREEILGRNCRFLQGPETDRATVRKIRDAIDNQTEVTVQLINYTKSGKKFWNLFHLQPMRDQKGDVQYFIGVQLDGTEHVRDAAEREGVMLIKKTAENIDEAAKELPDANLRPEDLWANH

T4 sequence (O49003 entry or part of it Q513L): as the sequence (O49003 entry or part of it) above, with Q110L counted along it
T6 sequence (O49003 entry or part of it N414G): as the sequence (O49003 entry or part of it) above, with N11G counted along it
T1 sequence (O49003 entry or part of it N414A): as the sequence (O49003 entry or part of it) above, with N11A counted along it
T8 sequence (O49003 entry or part of it N414L): as the sequence (O49003 entry or part of it) above, with N11L counted along it
T9 sequence (O49003 entry or part of it F494C): as the sequence (O49003 entry or part of it) above, with F91C counted along it
T3 sequence (O49003 entry or part of it C450V/F494C): as the sequence (O49003 entry or part of it) above, with C47V, F91C counted along it
T2 sequence (O49003 entry or part of it N414D): as the sequence (O49003 entry or part of it) above, with N11D counted along it
T7 sequence (O49003 entry or part of it Q513D): as the sequence (O49003 entry or part of it) above, with Q110D counted along it
T5 sequence (O49003 entry or part of it N414Q): as the sequence (O49003 entry or part of it) above, with N11Q counted along it

Cc1cc2nc3c(=O)[nH]c(=O)nc-3n(C[C@H](O)[C@H](O)[C@H](O)COP(=O)(O)O)c2cc1C [FMN, flavin mononucleotide]
τFMN [1]: 1427 s
τFMN [2]: 69 s
τFMN [3]: 69 s
τFMN [4]: 1793 s
τFMN [5]: 280 s
τFMN [6]: 615 s
τFMN [7]: 5 s
τFMN [8]: 1847 s
τFMN [9]: 282 s
τFMN [10]: 81 ± 2 s
